Consider one compound from US20250084058A1, “PHENYLPYRAZOLE COMPOUND AND APPLICATION THEREOF” (priority 2022, published 2025).

Each structure is given as a SMILES string. Read-outs that look alike come from different tables or passages of the source.

What all share (format): in vivo
The test system of one experiment is Mythimna separata. The experiment can be described thus: Activity determination of killing Mythimna separata (Airbrush spray, corn leaf segments). The conditions noted are these: foliar, dose 1.25 mg/L, 3rd instar larvae, 3rd day after administration, read-out: mortality against Mythimna separata. As for the experimental part:
(§1) The compounds to be tested were dissolved in a mixed solvent of acetone/methanol (1:1) and then diluted to desired concentrations with water containing 0.1% (wt) Tween 80.
(§2) With Mythimna separata and Plutella xylostella as targets, the activity was determined by Airbrush spray method.
Determination method: Corn leaves were cut into leaf segments with the length of 2 cm, the pressure of Airbrush spray treatment is 10 psi (about 0.7 kg/cm^2), and the compounds to be tested were sprayed onto the front and back surfaces of each leaf segment at a liquid amount of 0.5 mL. After drying in the shade, 10 3rd instar larvae were inoculated to each treatment, and each treatment was repeated for 3 times. After the treatment, the larvae were placed in an observation room for culture at 25° C. with relative humidity of 60-70%. On the 3rd day after administration, the number of surviving larvae was investigated, and the mortality was calculated.

A further experiment relates to Plutella xylostella. The experiment can be described thus: Activity determination of killing Plutella xylostella (Airbrush spray, cabbage leaf discs). The following applies: foliar, 3rd day after administration. The procedure: as §1, §2
Determination method: Cabbage leaves were punched into leaf discs with the diameter of 2 cm by a puncher, the pressure of Airbrush spray treatment is 10 psi (about 0.7 kg/cm^2), and the compounds to be tested were sprayed onto the front and back surfaces of each leaf disc at a liquid amount of 0.5 mL. After drying in the shade, 10 3rd instar larvae were inoculated to each treatment, and each treatment was repeated for 3 times. After the treatment, the larvae were placed in an observation room for culture at 25° C. with relative humidity of 60-70%. On 3rd day after administration, the number of surviving larvae was investigated, and the mortality was calculated.
Some compounds of the present disclosure and control compounds were selected to carry out parallel comparative experiments of the insecticidal activity against Plutella xylostella (on 3rd day after administration), and the determination method was the same as above.

For the next experiment, the system named is Tetranychus cinnabarinus. The experiment can be described thus: Greenhouse acaricidal activity on adult acarids of Tetranychus cinnabarinus (spraying of Phaseolus vulgaris seedlings). The following applies: dose 1.25 mg/L, after 72 h, read-out: mortality against adult acarids of Tetranychus cinnabarinus. As for the experimental part:
According to the solubility of the compounds to be tested, the compounds to be tested were dissolved in acetone or dimethyl sulfoxide and prepared into 50 mL of solutions to be tested at desired concentrations with a 0.1% Tween 80 solution, where the content of the acetone or dimethyl sulfoxide in the solutions was not higher than 10%.
Two true leaves of Phaseolus vulgaris seedlings were taken, and 30-40 adult acarids of Tetranychus cinnabarinus were inoculated. After the cardinal number was investigated, the whole plants were subjected to spraying treatment with a hand-held sprayer, each treatment was repeated for 3 times, and the plants were placed in a standard observation room after the treatment. The number of surviving acarids was investigated after 72 h, and the mortality was calculated.

The test system of a further experiment is Ctenocephalides felis. The experiment can be described thus: Insecticidal test on Ctenocephalides felis (compound film in culture dish). The conditions noted are these: 1 μg/cm^2; adult Ctenocephalides felis; after 72 h; 25° C.; read-out: insect mortality (Ctenocephalides felis). The procedure:
4 mg of compounds to be tested were dissolved in 40 mL of acetone to obtain acetone solutions with a concentration of 100 mg/L. Bottom surfaces and side surfaces of culture dishes with an inner diameter of 5.3 cm were coated with 400 μL of the drug solutions, and when the acetone was volatilized, films of the compounds of the present disclosure were prepared on inner walls of the culture dishes. The inner walls of the culture dishes used were 40 cm^2, and a dose of the treatment drugs was 1 μg/cm^2. 10 adult Ctenocephalides felis (males and females were mixed) were placed in the culture dishes, and the culture dishes were covered and then stored in a constant-temperature room at 25° C. The number of dead insects was checked after 72 h, and the insect mortality was calculated. The test was repeated for 3 times. Test results: The insect mortality of compounds 1, 2, 3, 4, 5, 11, 12, 18, 32, 33, 34, 46, 60, 74, 88, 99, 101, 102, 104, 105, 108, 109, 110, 111, 113 and 114 is 70% or above.

The test system of another experiment is Dermacentor variabilis. The experiment can be described thus: Insecticidal test on Dermacentor variabilis (compound film in culture dish). The conditions noted are these: 1 μg/cm^2, 1st nymphs, after 24 h, 25° C., read-out: insect mortality (Dermacentor variabilis). The procedure:
4 mg of compounds to be tested were dissolved in 40 mL of acetone to obtain acetone solutions with a concentration of 100 mg/L. Bottom surfaces and side surfaces of 2 culture dishes with an inner diameter of 5.3 cm were coated with 400 μL of the drug solutions, and when the acetone was volatilized, films of the compounds of the present disclosure were prepared on inner walls of the culture dishes. The inner walls of the culture dishes used were 40 cm^2, and a dose of the treatment drugs was 1 μg/cm^2. 10 1st nymphs of Dermacentor variabilis (males and females were mixed) were placed in the culture dishes. The 2 culture dishes were combined, sealed with tape at a junction portion to prevent escape of the nymphs, and then stored in a constant-temperature room at 25° C. The number of dead insects was checked after 24 h, and the insect mortality was calculated. The test was repeated for 3 times. Test results: The insect mortality of compounds 1, 2, 3, 4, 5, 11, 12, 18, 32, 33, 34, 46, 60, 74, 88, 99, 101, 102, 104, 105, 108, 109, 110, 111, 113 and 114 is 70% or above.

`COCC(=O)N(C(=O)c1cc(-c2cnn(-c3c(Cl)cc(C(F)(C(F)(F)F)C(F)(F)F)cc3Cl)c2)cnc1Cl)C1(C#N)CC1` [Compound 114]: the mortality at 1.25 µg/mL with Mythimna separata is ≥ 90%; with Plutella xylostella (1.25 mg/L, parallel comparative experiment, read-out: Mortality (%, on 3rd day after administration) 1.25 mg/L), 100%; in the experiment on Plutella xylostella (dose 1.25 mg/L, 3rd instar larvae, read-out: mortality against Plutella xylostella) it was ≥ 90%; with Tetranychus cinnabarinus, ≥ 90%. Also, the mortality at 0.3125 µg/mL in the experiment on Plutella xylostella (0.3125 mg/L, parallel comparative experiment, read-out: Mortality (%, on 3rd day after administration) 0.3125 mg/L) was determined as 100%. Besides, in the experiment on Plutella xylostella (0.625 mg/L, parallel comparative experiment, read-out: Mortality (%, on 3rd day after administration) 0.625 mg/L), the mortality at 0.625 µg/mL is 100%. The mortality at 1 µg/cm2 in the experiment with Ctenocephalides felis and in the experiment with Dermacentor variabilis was ≥ 70% each time.
